# According to publication PMC5218480 (PLoS ONE, 2017):
# Test system: MV-4-11 cells
# Assay: Gene expression microarray analysis (Affymetrix PrimeView) and GSEA
# Format: cell-based, human
# Set-up: RFU PODN (11730768_x_at) / Fold change /veh PODN (11730768_x_at) / RFU LINC00158 (11744669_a_at) / Fold change /veh LINC00158 (11744669_a_at) / RFU DUSP10 (11751237_a_at) / Fold change /veh DUSP10 (11751237_a_at) / RFU ID3 (11757404_x_at) / Fold change /veh ID3 (11757404_x_at) / RFU PLEKHG5 (11737974_s_at) / Fold change /veh PLEKHG5 (11737974_s_at) / RFU LRRC4B (11730491_at) / Fold change /veh LRRC4B (11730491_at) / RFU GIMAP4 (11747438_a_at) / Fold change /veh GIMAP4 (11747438_a_at) / RFU KRT8 (11758183_x_at) / Fold change /veh KRT8 (11758183_x_at) / RFU CNN1 (11734310_a_at) / Fold change /veh CNN1 (11734310_a_at) / RFU VPS37D (11726825_at) / Fold change /veh VPS37D (11726825_at) / RFU C10orf10 (11716522_x_at) / Fold change /veh C10orf10 (11716522_x_at) / RFU KIR2DL2 /// KIR2DL4 /// KIR2DL5A /// KIR2DL5B /// KIR2DS1 /// KIR2DS2 /// KIR2DS3 /// KIR2DS4 /// KIR3DL3 /// KIR3DL3 /// KIR3DS1 (11738374_at) / Fold change /veh KIR2DL2 /// KIR2DL4 /// KIR2DL5A /// KIR2DL5B /// KIR2DS1 /// KIR2DS2 /// KIR2DS3 /// KIR2DS4 /// KIR3DL3 /// KIR3DL3 /// KIR3DS1 (11738374_at) / RFU C1QL1 (11718748_at) / Fold change /veh C1QL1 (11718748_at) / RFU TMPRSS4 (11747572_a_at) / Fold change /veh TMPRSS4 (11747572_a_at) / RFU HAMP (11756126_x_at) / Fold change /veh HAMP (11756126_x_at) / RFU RNFT2 (11725882_a_at) / Fold change /veh RNFT2 (11725882_a_at) / RFU NR4A2 (11747474_a_at) / Fold change /veh NR4A2 (11747474_a_at) / RFU ABCC12 (11746883_a_at) / Fold change /veh ABCC12 (11746883_a_at) / RFU TMEM136 (11760407_x_at) / Fold change /veh TMEM136 (11760407_x_at) / RFU CLDN22 /// WWC2 (11732394_at) / Fold change /veh CLDN22 /// WWC2 (11732394_at) / RFU HLA-DPB1 (11760878_x_at) / Fold change /veh HLA-DPB1 (11760878_x_at) / RFU SPINT1 (11716480_a_at) / Fold change /veh SPINT1 (11716480_a_at) / RFU GAP43 (11754022_s_at) / Fold change /veh GAP43 (11754022_s_at) / RFU A4GNT (11735810_at) / Fold change /veh A4GNT (11735810_at) / RFU PRB3 (11715151_x_at) / Fold change /veh PRB3 (11715151_x_at) / RFU TUBB4B (11761932_at) / Fold change /veh TUBB4B (11761932_at) / RFU CAPN14 (11732068_a_at) / Fold change /veh CAPN14 (11732068_a_at) / RFU TMCC2 (11721928_a_at) / Fold change /veh TMCC2 (11721928_a_at) / RFU IRGQ (11745062_a_at) / Fold change /veh IRGQ (11745062_a_at) / RFU FAM174B (11720279_a_at) / Fold change /veh FAM174B (11720279_a_at) / RFU TMPRSS4 (11748680_a_at) / Fold change /veh TMPRSS4 (11748680_a_at) / RFU FAM212B (11763350_a_at) / Fold change /veh FAM212B (11763350_a_at) / RFU PLEKHG5 (11743358_a_at) / Fold change /veh PLEKHG5 (11743358_a_at) / RFU ZSCAN30 (11745921_a_at) / Fold change /veh ZSCAN30 (11745921_a_at) / RFU CMKLR1 (11741424_a_at) / Fold change /veh CMKLR1 (11741424_a_at) / RFU LOC101060620 /// MAPK8IP1 (11723275_at) / Fold change /veh LOC101060620 /// MAPK8IP1 (11723275_at) / RFU SPTSSB (11747773_x_at) / Fold change /veh SPTSSB (11747773_x_at) / RFU PRSS12 (11739890_at) / Fold change /veh PRSS12 (11739890_at) / RFU BIN1 (11741810_x_at) / Fold change /veh BIN1 (11741810_x_at) / RFU WNT11 (11732464_a_at) / Fold change /veh WNT11 (11732464_a_at) / RFU C10orf10 (11716521_a_at) / Fold change /veh C10orf10 (11716521_a_at) / RFU C5orf56 (11738089_at) / Fold change /veh C5orf56 (11738089_at) / RFU CYB561 (11721691_x_at) / Fold change /veh CYB561 (11721691_x_at) / RFU ANKRD19P (11752326_a_at) / Fold change /veh ANKRD19P (11752326_a_at) / RFU OR2T12 /// OR2T33 /// OR2T8 (11738714_s_at) / Fold change /veh OR2T12 /// OR2T33 /// OR2T8 (11738714_s_at) / RFU VCAN (11748164_a_at) / Fold change /veh VCAN (11748164_a_at) / RFU JSRP1 (11732532_at) / Fold change /veh JSRP1 (11732532_at) / RFU KRTAP10-11 (11738290_x_at) / Fold change /veh KRTAP10-11 (11738290_x_at) / RFU MYO3A (11730013_a_at) / Fold change /veh MYO3A (11730013_a_at) / RFU EBF3 (11725865_a_at) / Fold change /veh EBF3 (11725865_a_at) / RFU CAMK2N1 (11719241_x_at) / Fold change /veh CAMK2N1 (11719241_x_at) / RFU C5orf56 (11738088_a_at) / Fold change /veh C5orf56 (11738088_a_at) / RFU OLFML3 (11715873_a_at) / Fold change /veh OLFML3 (11715873_a_at) / RFU LOC100653217 /// NTM (11731650_a_at) / Fold change /veh LOC100653217 /// NTM (11731650_a_at) / RFU MAPK11 (11762145_a_at) / Fold change /veh MAPK11 (11762145_a_at) / RFU FIZ1 (11724087_x_at) / Fold change /veh FIZ1 (11724087_x_at) / RFU OASL (11726364_x_at) / Fold change /veh OASL (11726364_x_at) / RFU SOX15 (11748057_x_at) / Fold change /veh SOX15 (11748057_x_at) / RFU CD79A (11719716_a_at) / Fold change /veh CD79A (11719716_a_at) / RFU HIST1H1D (11736915_at) / Fold change /veh HIST1H1D (11736915_at) / RFU CASKIN2 (11723855_a_at) / Fold change /veh CASKIN2 (11723855_a_at) / RFU LOC730098 (11760151_x_at) / Fold change /veh LOC730098 (11760151_x_at) / RFU OR4N2 (11742367_at) / Fold change /veh OR4N2 (11742367_at) / RFU PRRT2 (11749266_a_at) / Fold change /veh PRRT2 (11749266_a_at) / RFU SNX32 (11753110_a_at) / Fold change /veh SNX32 (11753110_a_at) / RFU CDHR5 (11726645_a_at) / Fold change /veh CDHR5 (11726645_a_at) / RFU RCAN1 (11760418_a_at) / Fold change /veh RCAN1 (11760418_a_at) / RFU FAM167A (11723789_a_at) / Fold change /veh FAM167A (11723789_a_at) / RFU FAM26E (11764081_at) / Fold change /veh FAM26E (11764081_at) / RFU ISYNA1 (11749810_s_at) / Fold change /veh ISYNA1 (11749810_s_at) / RFU ACY1 (11761880_at) / Fold change /veh ACY1 (11761880_at) / RFU 11764098_at / Fold change /veh 11764098_at / RFU SAMD14 (11745864_x_at) / Fold change /veh SAMD14 (11745864_x_at) / RFU NPB (11741838_a_at) / Fold change /veh NPB (11741838_a_at) / RFU TMPRSS6 (11731388_a_at) / Fold change /veh TMPRSS6 (11731388_a_at) / RFU KRTAP10-2 (11738614_at) / Fold change /veh KRTAP10-2 (11738614_at) / RFU ARHGAP8 /// PRR5-ARHGAP8 (11727945_x_at) / Fold change /veh ARHGAP8 /// PRR5-ARHGAP8 (11727945_x_at) / RFU KRTAP5-7 /// NADSYN1 (11734609_at) / Fold change /veh KRTAP5-7 /// NADSYN1 (11734609_at) / RFU RASL12 (11751679_a_at) / Fold change /veh RASL12 (11751679_a_at) / RFU CDKN2B (11736163_a_at) / Fold change /veh CDKN2B (11736163_a_at) / RFU PRF1 (11729649_at) / Fold change /veh PRF1 (11729649_at) / RFU, ZNF638 /// ZNF638-IT1 / Fold change vs veh, ZNF638 /// ZNF638-IT1 / RFU, PANK3 / Fold change vs veh, PANK3 / RFU, SH3YL1 / Fold change vs veh, SH3YL1 / RFU, ZEB2 / Fold change vs veh, ZEB2 / RFU, NRIP1 / Fold change vs veh, NRIP1 / RFU, PTTG1IP / Fold change vs veh, PTTG1IP / RFU, CAPN2 / Fold change vs veh, CAPN2 / RFU, MED14 / Fold change vs veh, MED14 / RFU, SNORA58 / Fold change vs veh, SNORA58 / RFU, C1orf63 / Fold change vs veh, C1orf63 / RFU, LRRFIP1 / Fold change vs veh, LRRFIP1 / RFU, NDUFAF7 / Fold change vs veh, NDUFAF7 / RFU, SLC12A2 / Fold change vs veh, SLC12A2 / RFU, IBTK / Fold change vs veh, IBTK / RFU, ESF1 / Fold change vs veh, ESF1 / Fold change vs veh, TMEM50B / RFU, TAOK1 / Fold change vs veh, TAOK1 / RFU, ACBD3 / Fold change vs veh, ACBD3 / RFU, TMA16 / Fold change vs veh, TMA16 / RFU, RWDD3 / Fold change vs veh, RWDD3 / RFU, BCAT1 / Fold change vs veh, BCAT1 / RFU, EDEM3 / Fold change vs veh, EDEM3 / RFU, TMEM33 / Fold change vs veh, TMEM33 / RFU, WDR75 / Fold change vs veh, WDR75 / RFU, AHCTF1 / Fold change vs veh, AHCTF1 / RFU, TFRC / Fold change vs veh, TFRC / RFU, ZDHHC17 / Fold change vs veh, ZDHHC17 / RFU, NOM1 / Fold change vs veh, NOM1 / RFU, ARL8B / Fold change vs veh, ARL8B / RFU, ZBTB11 / Fold change vs veh, ZBTB11 / RFU, TAMM41 / Fold change vs veh, TAMM41 / RFU, KIAA1704 /// LOC100996395 / Fold change vs veh, KIAA1704 /// LOC100996395 / RFU, ING1 / Fold change vs veh, ING1 / RFU, TRMT61B / Fold change vs veh, TRMT61B / RFU, FUBP3 / Fold change vs veh, FUBP3 / RFU, TP53 / Fold change vs veh, TP53 / RFU, TNKS2 / Fold change vs veh, TNKS2 / RFU, ZFP14 / Fold change vs veh, ZFP14 / RFU, ACTR2 / Fold change vs veh, ACTR2 / RFU, PPP3R1 / Fold change vs veh, PPP3R1 / RFU, PIK3R1 / Fold change vs veh, PIK3R1 / RFU, HNRNPA1 / Fold change vs veh, HNRNPA1 / RFU, RNF170 / Fold change vs veh, RNF170 / RFU, ZNF28 / Fold change vs veh, ZNF28 / RFU, RNGTT / Fold change vs veh, RNGTT / RFU, OGT / Fold change vs veh, OGT / RFU, BRD1 / Fold change vs veh, BRD1 / RFU, MARS / Fold change vs veh, MARS / RFU, ZNF655 / Fold change vs veh, ZNF655 / RFU, FAHD1 / Fold change vs veh, FAHD1 / RFU, BDP1 / Fold change vs veh, BDP1 / RFU, LRRCC1 / Fold change vs veh, LRRCC1 / RFU, ARID1A / Fold change vs veh, ARID1A / RFU, ZNF146 / Fold change vs veh, ZNF146 / RFU, ZNF330 / Fold change vs veh, ZNF330 / RFU, GPN3 / Fold change vs veh, GPN3 / RFU, C9orf123 / Fold change vs veh, C9orf123 / RFU, N4BP2L2 / Fold change vs veh, N4BP2L2 / RFU, ARFIP1 / Fold change vs veh, ARFIP1 / RFU, FAM179B / Fold change vs veh, FAM179B / RFU, BCL10 / Fold change vs veh, BCL10 / RFU, UHRF1BP1L / Fold change vs veh, UHRF1BP1L / RFU, BET1 / Fold change vs veh, BET1 / RFU, CNOT2 / Fold change vs veh, CNOT2 / RFU, ZNF268 / Fold change vs veh, ZNF268 / Fold change vs veh, ZNF507 / RFU, DGCR2 / Fold change vs veh, DGCR2 / RFU, WDSUB1 / Fold change vs veh, WDSUB1 / Fold change vs veh, HSP90B1 /// MIR3652 / RFU, ADSS / Fold change vs veh, ADSS / RFU, GK / Fold change vs veh, GK / RFU, ZNF148 / Fold change vs veh, ZNF148 / RFU, TAF9 / Fold change vs veh, TAF9 / RFU, SLC1A5 / Fold change vs veh, SLC1A5 / RFU, SLMO2 / Fold change vs veh, SLMO2 / RFU, ABCC4 / Fold change vs veh, ABCC4 / RFU, LOC101060439 /// RAP1B / Fold change vs veh, LOC101060439 /// RAP1B / RFU, RFX7 / Fold change vs veh, RFX7 / RFU, GTPBP10 / Fold change vs veh, GTPBP10 / RFU, CNEP1R1 / Fold change vs veh, CNEP1R1 / RFU, BIVM-ERCC5 /// ERCC5 / Fold change vs veh, BIVM-ERCC5 /// ERCC5 / RFU, ILF3 / Fold change vs veh, ILF3 / RFU 11762660_at / Fold change /veh 11762660_at / RFU VCAN (11757783_s_at) / Fold change /veh VCAN (11757783_s_at) / RFU DDX43 (11728927_at) / Fold change /veh DDX43 (11728927_at) / RFU KRT8 (11758188_x_at) / Fold change /veh KRT8 (11758188_x_at) / RFU NKD1 (11759106_at) / Fold change /veh NKD1 (11759106_at) / RFU SRD5A1 (11742802_a_at) / Fold change /veh SRD5A1 (11742802_a_at) / RFU TPSAB1 /// TPSB2 (11721975_s_at) / Fold change /veh TPSAB1 /// TPSB2 (11721975_s_at) / RFU GSTM3 (11746129_a_at) / Fold change /veh GSTM3 (11746129_a_at) / RFU IL23R (11737362_x_at) / Fold change /veh IL23R (11737362_x_at) / RFU TMEM51 (11727254_a_at) / Fold change /veh TMEM51 (11727254_a_at) / RFU PIWIL2 (11732686_x_at) / Fold change /veh PIWIL2 (11732686_x_at) / RFU ORM1 (11744905_x_at) / Fold change /veh ORM1 (11744905_x_at) / RFU CCDC152 (11743942_at) / Fold change /veh CCDC152 (11743942_at) / RFU ECM1 (11717891_a_at) / Fold change /veh ECM1 (11717891_a_at) / RFU IL23R (11748794_a_at) / Fold change /veh IL23R (11748794_a_at) / RFU TNFAIP8L3 (11732012_x_at) / Fold change /veh TNFAIP8L3 (11732012_x_at) / RFU MBOAT4 (11741988_at) / Fold change /veh MBOAT4 (11741988_at) / RFU 11764193_at / Fold change /veh 11764193_at / RFU TMEM53 (11763286_at) / Fold change /veh TMEM53 (11763286_at) / RFU MAGEB2 (11727129_at) / Fold change /veh MAGEB2 (11727129_at) / RFU TMEM200A (11744735_a_at) / Fold change /veh TMEM200A (11744735_a_at) / RFU CCDC152 (11751479_a_at) / Fold change /veh CCDC152 (11751479_a_at) / RFU FAM211A (11726209_a_at) / Fold change /veh FAM211A (11726209_a_at) / RFU RGS16 (11746705_a_at) / Fold change /veh RGS16 (11746705_a_at) / RFU VCAN (11755009_s_at) / Fold change /veh VCAN (11755009_s_at) / RFU RHOB (11743442_s_at) / Fold change /veh RHOB (11743442_s_at) / RFU RGS16 (11720943_a_at) / Fold change /veh RGS16 (11720943_a_at) / RFU RGS16 (11720944_at) / Fold change /veh RGS16 (11720944_at) / RFU, VPS4B / Fold change vs veh, VPS4B / RFU, CREB1 / Fold change vs veh, CREB1 / RFU, DNAJC13 / Fold change vs veh, DNAJC13 / RFU, GNAQ / Fold change vs veh, GNAQ / RFU, CDK5R1 / Fold change vs veh, CDK5R1 / RFU, ZRANB3 / Fold change vs veh, ZRANB3 / RFU, CUL4A / Fold change vs veh, CUL4A / RFU, CCNY / Fold change vs veh, CCNY / RFU, UFL1 / Fold change vs veh, UFL1 / RFU, COG3 / Fold change vs veh, COG3 / RFU, DIAPH2 / Fold change vs veh, DIAPH2 / RFU, SKA2 / Fold change vs veh, SKA2 / RFU, AFF3 / Fold change vs veh, AFF3 / RFU, LMF1 / Fold change vs veh, LMF1 / RFU, IPO11 / Fold change vs veh, IPO11 / RFU, DFFB / Fold change vs veh, DFFB / RFU, FOXP1 / Fold change vs veh, FOXP1 / RFU, CARD8 / Fold change vs veh, CARD8 / RFU, STRN3 / Fold change vs veh, STRN3 / RFU, ADK / Fold change vs veh, ADK / RFU, RASSF2 / Fold change vs veh, RASSF2 / RFU, WIPF1 / Fold change vs veh, WIPF1 / RFU, LARP1B / Fold change vs veh, LARP1B / RFU, RASA1 / Fold change vs veh, RASA1 / RFU, RB1 / Fold change vs veh, RB1 / RFU, PPFIA1 / Fold change vs veh, PPFIA1 / RFU, MAT2A / Fold change vs veh, MAT2A / RFU, CCT5 / Fold change vs veh, CCT5 / RFU, WDR92 / Fold change vs veh, WDR92 / RFU, CUX1 / Fold change vs veh, CUX1 / RFU, TTC7A / Fold change vs veh, TTC7A / RFU, TMEM135 / Fold change vs veh, TMEM135 / RFU, DEPTOR / Fold change vs veh, DEPTOR / RFU, CPM / Fold change vs veh, CPM / RFU, DNAJB6 / Fold change vs veh, DNAJB6 / RFU, CACNA2D3 / Fold change vs veh, CACNA2D3 / RFU, DTX4 / Fold change vs veh, DTX4 / RFU, TFCP2 / Fold change vs veh, TFCP2 / RFU, GMCL1 /// GMCL1P1 / Fold change vs veh, GMCL1 /// GMCL1P1 / RFU, AEBP2 / Fold change vs veh, AEBP2 / RFU, SNHG1 /// SNORD22 /// SNORD25 /// SNORD26 /// SNORD27 /// SNORD28 /// SNORD29 /// SNORD31 / Fold change vs veh, SNHG1 /// SNORD22 /// SNORD25 /// SNORD26 /// SNORD27 /// SNORD28 /// SNORD29 /// SNORD31 / Fold change (Aza/veh), C12orf56 (ProbeSet 11735607_a_at) / Fold change (ACY-1035/veh), C12orf56 (ProbeSet 11735607_a_at) / Fold change (Aza/veh), FGFR1OP (ProbeSet 11751329_s_at) / Fold change (ACY-1035/veh), FGFR1OP (ProbeSet 11751329_s_at) / Fold change (Aza/veh), VPS36 (ProbeSet 11739960_a_at) / Fold change (ACY-1035/veh), VPS36 (ProbeSet 11739960_a_at) / RFU SYPL1 (11715823_x_at) / Fold change /veh SYPL1 (11715823_x_at) / RFU IGFBP7 (11715501_s_at) / Fold change /veh IGFBP7 (11715501_s_at) / RFU REEP3 (11722064_at) / Fold change /veh REEP3 (11722064_at) / RFU IGLL1 (11728026_x_at) / Fold change /veh IGLL1 (11728026_x_at): dose or concentration left out as unconfirmed
# Conditions: MV-4-11 cells, 48 hours
structure (smiles),measurement,value
Nc1ccc(-c2cccs2)cc1NC(=O)c1ccc2c(c1)cc(C1CC1)n2CCN1CCOCC1 [ACY-1035],RFU RCAN1 (11760418_a_at),20.19 RFU
